Measurements reported in PMC8777765, “Identification of Cyclic Sulfonamides with an N-Arylacetamide Group as α-Glucosidase and α-Amylase Inhibitors: Biological Evaluation and Molecular Modeling” (Pharmaceuticals, 2022).

How the values were obtained:
[1] = tested on: yeast α-glucosidase enzyme; assay: in vitro α-glucosidase inhibition (PNPG substrate); format: biochemical, Saccharomyces cerevisiae; settings: for IC50: PNPG substrate
Method: α-Glucosidase inhibitions were determined following a modified spectroscopic method [87]. A solution of α-glucosidase (obtained from Saccharomyces cerevisiae (Sigma-Aldrich, Munich, Germany)) was prepared in phosphate buffer (pH 6.8, 100 mM). Wells of the 96-well microliter plates were filled with test sample solutions (12.5 μL) prepared in DMSO. After this, enzyme (0.5 U/mL, 40 μL) and then phosphate buffer (100 mM, 120 μL) were also mixed with the test sample solutions. Incubation at 37 °C for 5 min and then addition of 40 μL of the substrate, p-nitrophenyl-α-D-glucopyranoside (PNPG) (5 nM, Sigma-Aldrich, Munich, Germany), was performed. Mixtures were again incubated for 30 min, and absorbance was measured at 405 nm and 37 °C for the released 4-nitrophenol in each mixture. […] Each experiment was carried out thrice, and percentage inhibitions were determined with the help of following expression, followed by the determination of IC50 values. % Inhibition = [(Acontrol − Asample)/Acontrol] × 100 where A is absorbance.

[2] = molecular target: T1, Aspergillus oryzae α-amylase (Aspergillus oryzae, UniProt P0C1B3); assay: in vitro α-amylase inhibition (starch substrate, DNSA); format: biochemical
T1 construct: purchased Sigma-Aldrich, Munich, Germany
Method: A total of 40 µL of each test sample was pipetted out in 96-well microliter plates. This was mixed with 40 µL of Aspergillus oryzae α-amylase (Sigma-Aldrich, Munich, Germany) solution (prepared in Na2SO4 buffer (0.02 M, pH = 6.9)). Incubation of solutions was executed at 37 °C for 10 min. After incubation, 40 µL of starch solution prepared in 1% DMSO was added into each well as a substrate and placed at 25 °C for 10 min. After this, 100 µL of 3,5-dinitrosalicylic acid (DNSA) was added and incubated for 5 min in boiling water. After cooling and dilution of mixtures with distilled water (400 μL), the absorbance was recorded at 540 nm wavelength [91] and 37 °C temperature with the help of a microplate reader. […] Each experiment was carried out thrice, and percentage inhibitions were determined with the help of following expression, followed by the determination of IC50 values. % Inhibition = [(Acontrol − Asample)/Acontrol] × 100 where A is absorbance.

aldose reductase = molecular target: aldose reductase; set-up: method as in PMID 22036211; settings: cited from earlier work
α-glucosidase [3] = molecular target: α-glucosidase; set-up: method as in PMID 32024621; settings: read-out: α-glucosidase IC50 (literature); cited from earlier work
[4] = molecular target: human 11β-hydroxysteroid dehydrogenase type 1 (11β-HSD1); set-up: method as in PMID 21212546; settings: cited from earlier work
α-glucosidase [5] = assay: enzyme inhibition kinetics (Lineweaver–Burk), α-glucosidase; format: biochemical, Saccharomyces cerevisiae; settings: secondary plots; PNPG 1–9 mM; read-out: Ki (inhibition constant), α-glucosidase
Source text: (§1) The pattern of the Lineweaver–Burk plot can visualize the type of inhibition, as shown in Figure 6A−F. […] Secondary plots were drawn to determine the value of the inhibition constant Ki and the dissociation constant Ki’. Smaller Ki implies higher enzyme inhibition, implying the possibility of an allosteric binding site in the enzyme, to which synthetic drugs could bind.
(§2) The Lineweaver–Burk equation was used to determine the type of inhibition. α-Glucosidase and α-amylase activities were studied in the absence and presence of various sample concentrations (0.1 mM, 0.25 mM, 0.5 mM, 0.75 mM and 1.0 mM). For α-glucosidase inhibition kinetics, PNPG was used as a substrate, with different concentrations (1 mM, 3 mM, 5 mM, 7 mM and 9 mM). In α-amylase inhibition kinetics, various amounts of starch solution (0.25–2%) were tested. All experiments were carried out in triplicate, and the outcomes were written as mean ± S.D.

α-amylase = molecular target: T2, α-amylase (Aspergillus oryzae, UniProt P0C1B3); assay: enzyme inhibition kinetics (Lineweaver–Burk), α-amylase; format: biochemical; settings: secondary plots; starch 0.25–2%; read-out: Ki (inhibition constant), α-amylase
T2 construct: purchased Sigma-Aldrich, Munich, Germany
Source text: as §1, §2

[6] = tested on: severe acute respiratory syndrome coronavirus 2 (SARS-CoV-2); set-up: method as in PMID 33160024; settings: cited from earlier work

SMILES	α-glucosidase inhibition (in words) [1]	IC50 [2]	melting point	IC50 [1]	other results
COc1cccc(C(=O)C2=C(O)c3ccccc3S(=O)(=O)N2)c1 [Compound 11, (4-Hydroxy-1,1-dioxido-2H-benzo[e][1,2]thiazin-3-yl)(3-methoxyphenyl)methanone]	failed to show any remarkable inhibition	147 µM			
O=C(O)/C=C1\CN(Cc2ccc(Br)cc2F)S(=O)(=O)c2ccccc21 [Compound 5]					IC50 (aldose reductase): 0.11 µM
C/C(=N\NC(=O)C1=C(O)c2ccccc2S(=O)(=O)N1C)c1ccccc1 [Compound 7]					IC50 (α-glucosidase [3]): 4.2 µM
O=C(CN1C(C(=O)Nc2ccccc2)=C(O)c2ccccc2S1(=O)=O)Nc1cccc(C(F)(F)F)c1 [Compound 3]					IC50 [4]: 0.041 µM
COc1cccc(C(=O)C2=C(O)c3ccccc3S(=O)(=O)N2CC(=O)Nc2ccccc2C)c1 [Compound 12j, 2-(4-Hydroxy-3-(3-methoxybenzoyl)-1,1-dioxido-2H-benzo[e][1,2]thiazin-2-yl)-N-(o-tolyl)acetamide]	failed to show any remarkable inhibition		166 °C		
COc1cccc(C(=O)C2=C(O)c3ccccc3S(=O)(=O)N2CC(=O)Nc2cccc(C)c2)c1 [Compound 12k, 2-(4-Hydroxy-3-(3-methoxybenzoyl)-1,1-dioxido-2H-benzo[e][1,2]thiazin-2-yl)-N-(m-tolyl)acetamide]		67.2 µM	150 to 151 °C	30.4 µM	
COc1cccc(C(=O)C2=C(O)c3ccccc3S(=O)(=O)N2CC(=O)Nc2cccc(Cl)c2)c1 [Compound 12b, N-(3-Chlorophenyl)-2-(4-hydroxy-3-(3-methoxybenzoyl)-1,1-dioxido-2H-benzo[e][1,2]thiazin-2-yl)acetamide]	failed to show any remarkable inhibition				
COc1cccc(C(=O)C2=C(O)c3ccccc3S(=O)(=O)N2CC(=O)Nc2ccccc2[N+](=O)[O-])c1 [Compound 12d, 2-(4-Hydroxy-3-(3-methoxybenzoyl)-1,1-dioxido-2H-benzo[e][1,2]thiazin-2-yl)-N-(2-nitrophenyl)acetamide]	failed to show any remarkable inhibition	15.1 µM		102 µM	
COc1cccc(C(=O)C2=C(O)c3ccccc3S(=O)(=O)N2CC(=O)Nc2ccccc2Cl)c1 [Compound 12a, N-(2-Chlorophenyl)-2-(4-hydroxy-3-(3-methoxybenzoyl)-1,1-dioxido-2H-benzo[e][1,2]thiazin-2-yl)acetamide]		13.3 µM	186 to 187 °C	46.2 µM	
COc1cccc(C(=O)C2=C(O)c3ccccc3S(=O)(=O)N2CC(=O)Nc2ccc([N+](=O)[O-])cc2)c1 [Compound 12f, 2-(4-Hydroxy-3-(3-methoxybenzoyl)-1,1-dioxido-2H-benzo[e][1,2]thiazin-2-yl)-N-(4-nitrophenyl)acetamide]		29 µM	176 to 177 °C	97 µM	
C/C(=N\NC(=O)C1=C(O)c2ccccc2S(=O)(=O)N1)c1ccccc1 [Compound 6]					IC50 (α-glucosidase [3]): 3.9 µM
COc1ccc(NC(=O)CN2C(C(=O)c3cccc(OC)c3)=C(O)c3ccccc3S2(=O)=O)cc1 [Compound 12m, 2-(4-Hydroxy-3-(3-methoxybenzoyl)-1,1-dioxido-2H-benzo[e][1,2]thiazin-2-yl)-N-(4-methoxyphenyl)acetamide]	failed to show any remarkable inhibition	122 µM	201 to 202 °C		
COc1cccc(C(=O)C2=C(O)c3ccccc3S(=O)(=O)N2CC(=O)Nc2ccc(Cl)cc2)c1 [Compound 12c, N-(4-Chlorophenyl)-2-(4-hydroxy-3-(3-methoxybenzoyl)-1,1-dioxido-2H-benzo[e][1,2]thiazin-2-yl)acetamide]		125 µM	146 to 147 °C	40.8 µM	
COc1cccc(C(=O)C2=C(O)c3ccccc3S(=O)(=O)N2CC(=O)Nc2cccc([N+](=O)[O-])c2)c1 [Compound 12e, 2-(4-Hydroxy-3-(3-methoxybenzoyl)-1,1-dioxido-2H-benzo[e][1,2]thiazin-2-yl)-N-(3-nitrophenyl)acetamide]	failed to show any remarkable inhibition	37.5 µM	189 to 190 °C		
COc1cccc(C(=O)C2=C(O)c3ccccc3S(=O)(=O)N2CC(=O)Nc2ccccc2OC)c1 [Compound 12l, 2-(4-Hydroxy-3-(3-methoxybenzoyl)-1,1-dioxido-2H-benzo[e][1,2]thiazin-2-yl)-N-(2-methoxyphenyl)acetamide]	failed to show any remarkable inhibition			110 µM	
COc1cccc(C(=O)C2=C(O)c3ccccc3S(=O)(=O)N2CC(=O)Nc2ccc(Br)cc2)c1 [Compound 12i, N-(4-Bromophenyl)-2-(4-hydroxy-3-(3-methoxybenzoyl)-1,1-dioxido-2H-benzo[e][1,2]thiazin-2-yl)acetamide]		7.52 µM		25.9 µM	Ki (α-glucosidase [5]): 100 µM; Ki (α-amylase): 70.4 µM
COc1cccc(C(=O)C2=C(O)c3ccccc3S(=O)(=O)N2CC(=O)Nc2ccccc2Br)c1 [Compound 12g, N-(2-Bromophenyl)-2-(4-hydroxy-3-(3-methoxybenzoyl)-1,1-dioxido-2H-benzo[e][1,2]thiazin-2-yl)acetamide]		11.7 µM	169 to 171 °C	35.1 µM	
O=C(CN1C(C(=O)Nc2ccc(F)c(Cl)c2)=C(O)c2ccc(F)cc2S1(=O)=O)Nc1ccc(C(F)(F)F)cc1 [Compound 4]					IC50 [6]: 0.88 µM
COc1cccc(C(=O)C2=C(O)c3ccccc3S(=O)(=O)N2CC(=O)Nc2cccc(Br)c2)c1 [Compound 12h, N-(3-Bromophenyl)-2-(4-hydroxy-3-(3-methoxybenzoyl)-1,1-dioxido-2H-benzo[e][1,2]thiazin-2-yl)acetamide]		110 µM	132 to 133 °C	86.2 µM	
